In patent publication US4156724A, “N-acylamino-alpha-arylacetamido cephalosporins and antibacterial compositions and methods containing them” (Sumitomo Chemical Company, Limited, priority 1974, dated 1979):
≈ marks a conversion by molar mass, not a printed value.

Tests used:
Assay type in all cases: cell-based
[1] = system: Klebsiella pneumoniae 602; assay: Minimum Inhibitory Concentration, Klebsiella pneumoniae 602; conditions: for MIC: Klebsiella pneumoniae, 602, Klebsiella pneumoniae 602, read-out: Minimum Inhibitory Concentration
Experimental: (§1) anti-microbial activity tests were carried out on the compounds obtained in the Examples.

[2] = system: Staphylococcus aureus 209 P; assay: Minimum Inhibitory Concentration, Staphylococcus aureus 209 P; conditions: Staphylococcus aureus 209 P; for MIC: read-out: Minimum Inhibitory Concentration
Experimental: as §1

[3] = system: Enterobacter aerogeneus No. 75; assay: Minimum Inhibitory Concentration, Enterobacter aerogeneus No. 75; conditions: Enterobacter aerogeneus No. 75; for MIC: read-out: Minimum Inhibitory Concentration
Experimental: as §1

Proteus vulgaris HX 19 = assay: Minimum Inhibitory Concentration, Proteus vulgaris HX 19; conditions: Proteus vulgaris HX 19; for MIC: HX19, read-out: Minimum Inhibitory Concentration
Experimental: as §1

Serratia No. 72 = assay: Minimum Inhibitory Concentration, Serratia No. 72
Experimental: as §1

[4] = system: Pseudomonas aeruginosa 104; assay: Minimum Inhibitory Concentration, Pseudomonas aeruginosa 104; conditions: Pseudomonas aeruginosa 104; for MIC: read-out: Minimum Inhibitory Concentration
Experimental: as §1

Escherichia coli NIHJ = assay: Minimum Inhibitory Concentration, Escherichia coli NIHJ; conditions: Escherichia coli NIHJ; for MIC: read-out: Minimum Inhibitory Concentration
Experimental: as §1

[5] = system: Staphylococcus aureus FS 289; assay: Minimum Inhibitory Concentration, Staphylococcus aureus FS 289; conditions: Staphylococcus aureus FS 289, strain resistant to penicillin; for MIC: FS289, read-out: Minimum Inhibitory Concentration
Experimental: as §1
*Staphylococcus aureus FS 289: strain resistant to penicillin

Row | Structure (SMILES) | MIC [1] [µg/mL] | MIC [2] [µg/mL] | MIC [3] [µg/mL] | MIC (Proteus vulgaris HX 19) [µg/mL] | MIC (Serratia No. 72) [µg/mL] | MIC [4] [µg/mL] | MIC (Escherichia coli NIHJ) [µg/mL] | MIC [5] [µg/mL] | Minimum Inhibitory Concentration ([1]; Klebsiella pneumoniae 602) [µg/mL] | Minimum Inhibitory Concentration [2] [µg/mL] | Minimum Inhibitory Concentration [3] [µg/mL] | Minimum Inhibitory Concentration (Proteus vulgaris HX 19) [µg/mL] | Minimum Inhibitory Concentration (Serratia No. 72) [µg/mL] | Minimum Inhibitory Concentration [4] [µg/mL] | Minimum Inhibitory Concentration (Escherichia coli NIHJ) [µg/mL] | Minimum Inhibitory Concentration [5] [µg/mL]
1 | Cn1nnnc1SCC1=C(C(=O)O)N2C(=O)C(NC(=O)C(NC(=O)c3ccnnc3O)c3cccc(N)c3)C2SC1 (stereo not drawn) [Example 60] | 6.25 (≈ 10.4 µM) | 0.39 (≈ 0.651 µM) | 12.5 (≈ 20.9 µM) | 0.1 (≈ 0.167 µM) | 50 (≈ 83.5 µM) | 6.25 (≈ 10.4 µM) | 6.25 (≈ 10.4 µM) | 6.25 (≈ 10.4 µM) | – | – | – | – | – | – | – | –
2 | CC(=O)OCC1=C(C(=O)O)N2C(=O)C(NC(=O)C(NC(=O)c3cnccc3O)c3ccc(CO)cc3)C2SC1 (racemic) [Example 88, 7-[DL-α-(4-Hydroxypyridine-3-carbonamido)-α-p-hydroxymethylphenylacetamido]cephalosporanic Acid] | 25 (≈ 44.9 µM) | 0.78 (≈ 1.4 µM) | 25 (≈ 44.9 µM) | 0.39 (≈ 0.701 µM) | > 200 | 12.5 (≈ 22.5 µM) | 25 (≈ 44.9 µM) | 6.25 (≈ 11.2 µM) | – | – | – | – | – | – | – | –
3 | CNc1nnc(SCC2=C(C(=O)O)N3C(=O)C(NC(=O)C(NC(=O)c4cnc5cccnc5c4O)c4cccc(N)c4)C3SC2)s1 (stereo not drawn) [Example 78] | 3.13 (≈ 4.6 µM) | 0.78 (≈ 1.15 µM) | 6.25 (≈ 9.19 µM) | 0.2 (≈ 0.294 µM) | 12.5 (≈ 18.4 µM) | 3.13 (≈ 4.6 µM) | 3.13 (≈ 4.6 µM) | 6.25 (≈ 9.19 µM) | – | – | – | – | – | – | – | –
4 | CC(=O)OCC1=C(C(=O)O)N2C(=O)C(NC(=O)[C@H](NC(=O)c3ccnnc3O)c3ccc(O)cc3)C2SC1 (stereo partly drawn) [Example 116] | 6.25 (≈ 11.5 µM) | 0.39 (≈ 0.718 µM) | 25 (≈ 46 µM) | 0.2 (≈ 0.368 µM) | > 200 | 6.25 (≈ 11.5 µM) | 12.5 (≈ 23 µM) | 3.13 (≈ 5.76 µM) | – | – | – | – | – | – | – | –
5 | CC(=O)OCC1=C(C(=O)O)N2C(=O)C(NC(=O)C(NC(=O)c3cnc4cccnc4c3O)c3ccc(CO)cc3)C2SC1 (racemic) [Example 89, 7-[DL-α-(4-Hydroxy-1,5-naphthyridine-3-carbonamido)-α-p-hydroxymethylphenylacetamido]cephalosporanic Acid] | 1.56 (≈ 2.57 µM) | 1.56 (≈ 2.57 µM) | 6.25 (≈ 10.3 µM) | 0.78 (≈ 1.28 µM) | 50 (≈ 82.3 µM) | 6.25 (≈ 10.3 µM) | 3.13 (≈ 5.15 µM) | 6.25 (≈ 10.3 µM) | – | – | – | – | – | – | – | –
6 | CC(=O)OCC1=C(C(=O)O)N2C(=O)C(NC(=O)C(NC(=O)c3cnccc3O)c3ccc(O)c(O)c3)C2SC1 (stereo not drawn) [Example 182] | 25 (≈ 44.8 µM) | 0.78 (≈ 1.4 µM) | 25 (≈ 44.8 µM) | 0.78 (≈ 1.4 µM) | > 200 | 12.5 (≈ 22.4 µM) | 12.5 (≈ 22.4 µM) | 3.13 (≈ 5.6 µM) | – | – | – | – | – | – | – | –
7 | CC(=O)OCC1=C(C(=O)O)N2C(=O)C(NC(=O)[C@H](NC(=O)c3cnc(O)nc3O)c3ccc(O)cc3)C2SC1 (stereo partly drawn) [Example 119] | 25 (≈ 44.7 µM) | 0.39 (≈ 0.697 µM) | 25 (≈ 44.7 µM) | 0.39 (≈ 0.697 µM) | > 200 | 6.25 (≈ 11.2 µM) | 6.25 (≈ 11.2 µM) | 6.25 (≈ 11.2 µM) | – | – | – | – | – | – | – | –
8 | O=C(O)C1=C(CSc2nnc(CO)s2)CSC2C(NC(=O)C(NC(=O)c3cnc4cncnc4c3O)c3cccc(O)c3)C(=O)N12 (stereo not drawn) [Example 155] | 6.25 (≈ 9.15 µM) | 0.78 (≈ 1.14 µM) | 6.25 (≈ 9.15 µM) | 0.78 (≈ 1.14 µM) | 12.5 (≈ 18.3 µM) | 3.13 (≈ 4.58 µM) | 3.13 (≈ 4.58 µM) | 12.5 (≈ 18.3 µM) | – | – | – | – | – | – | – | –
9 | Cc1nnc(SCC2=C(C(=O)O)N3C(=O)C(NC(=O)[C@H](NC(=O)c4cnc5cccnc5c4O)c4ccc(N)cc4)C3SC2)s1 (stereo partly drawn) [Example 52, 7-[D-α-(4-Hydroxy-1,5-naphthyridine-3-carbonamido)-α-p-aminophenylacetamido]-3-(2-methyl-1,3,4-thiadiazol-5yl)thiomethyl-3-cephem-4-carboxylic acid] | 3.13 (≈ 4.71 µM) | 1.56 (≈ 2.35 µM) | 3.13 (≈ 4.71 µM) | 0.1 (≈ 0.15 µM) | 12.5 (≈ 18.8 µM) | 6.25 (≈ 9.4 µM) | 1.56 (≈ 2.35 µM) | 6.25 (≈ 9.4 µM) | – | – | – | – | – | – | – | –
10 | O=C(O)C1=C(CSc2cnn[nH]2)CSC2C(NC(=O)[C@H](NC(=O)c3cnc4cccnc4c3O)c3ccc(O)cc3)C(=O)N12 (stereo partly drawn) [Example 134] | 1.56 (≈ 2.46 µM) | 0.78 (≈ 1.23 µM) | 3.13 (≈ 4.93 µM) | 0.1 (≈ 0.158 µM) | 25 (≈ 39.4 µM) | 3.13 (≈ 4.93 µM) | 3.13 (≈ 4.93 µM) | 3.13 (≈ 4.93 µM) | – | – | – | – | – | – | – | –
11 | Cn1nnnc1SCC1=C(C(=O)O)N2C(=O)C(NC(=O)C(NC(=O)c3cncnc3O)c3ccc(CO)cc3)C2SC1 (stereo not drawn) [Example 94] | 12.5 (≈ 20.4 µM) | 0.78 (≈ 1.27 µM) | 25 (≈ 40.7 µM) | 0.78 (≈ 1.27 µM) | 50 (≈ 81.5 µM) | 25 (≈ 40.7 µM) | 25 (≈ 40.7 µM) | 12.5 (≈ 20.4 µM) | – | – | – | – | – | – | – | –
12 | Nc1cccc(C(NC(=O)c2cnc3cccnc3c2O)C(=O)NC2C(=O)N3C(C(=O)O)=C(CSc4ccc(O)nn4)CSC23)c1 (stereo not drawn) [Example 65] | 3.13 (≈ 4.74 µM) | 0.78 (≈ 1.18 µM) | 3.13 (≈ 4.74 µM) | 0.2 (≈ 0.303 µM) | 12.5 (≈ 18.9 µM) | 3.13 (≈ 4.74 µM) | 3.13 (≈ 4.74 µM) | 6.25 (≈ 9.46 µM) | – | – | – | – | – | – | – | –
13 | Cn1nnnc1SCC1=C(C(=O)[O-])N2C(=O)C(NC(=O)C(NC(=O)c3cnc4cccnc4c3O)c3cccc(N)c3)C2SC1.[Na+] (stereo not drawn) [Example 55] | – | – | – | – | – | – | – | – | 3.13 | 0.78 | 3.13 | 0.1 | 12.5 | 3.13 | 1.56 | 3.13
14 | Cn1nnnc1SCC1=C(C(=O)O)N2C(=O)C(NC(=O)C(NC(=O)c3cccnc3O)c3ccc(CO)cc3)C2SC1 (stereo not drawn) [Example 112] | 6.25 (≈ 10.2 µM) | 0.78 (≈ 1.27 µM) | 25 (≈ 40.8 µM) | 0.78 (≈ 1.27 µM) | 100 (≈ 163 µM) | 12.5 (≈ 20.4 µM) | 12.5 (≈ 20.4 µM) | 12.5 (≈ 20.4 µM) | – | – | – | – | – | – | – | –
15 | Cc1nnc(SCC2=C(C(=O)O)N3C(=O)C(NC(=O)C(NC(=O)c4cnc5nc(N(C)C)ncc5c4O)c4ccc(O)c(O)c4)C3SC2)s1 (stereo not drawn) [Example 156] | 6.25 (≈ 8.61 µM) | 1.56 (≈ 2.15 µM) | 12.5 (≈ 17.2 µM) | 0.78 (≈ 1.07 µM) | 50 (≈ 68.9 µM) | 6.25 (≈ 8.61 µM) | 6.25 (≈ 8.61 µM) | 12.5 (≈ 17.2 µM) | – | – | – | – | – | – | – | –
